From PMC10859961, “Ir(III) Half-Sandwich Photosensitizers with a π-Expansive Ligand for Efficient Anticancer Photodynamic Therapy” (Journal of Medicinal Chemistry, 2024)
Values joined by “and” are separate entries in the source; they are usually repeats but may differ in a detail not shown here. Identical values can stand only once. Like-named read-outs stand apart in the source and are kept apart here.

Tests used:
[1] = Stability and photostability studies by 1H NMR; type: physicochemical
Procedure: Solutions of complexes 1 and 6 at 3.2 mM and 2 at 0.6 mM in DMSO-d6 and DMSO-d6/D2O mixture (9:1, v/v) were prepared.

[2] = test system: PC-3; test: CyQUANT cell viability assay, dark or blue light; type: cell-based, human; conditions: for IC50 / PI (IC50,dark/IC50,light): PC-3, CyQUANT; for IC50: 48 h; for PI (IC50,dark/IC50,light): blue light 460 nm; for PI/Dose: PC‐3, 460 nm, dose 24.1 J cm‐2, PI from CyQUANT
Procedure: (§1) Cells were cultured in 96-well plates at a density of 3000 (A549), 2500 (HeLa), or 5000 (PC-3, 1BR.3.G, and MRC-5) cells per well in cell culture medium and allowed to attach for 24 h. Solutions of the complexes at different concentrations were prepared for cell treatments. In all cases, the solid compounds were weighed using an analytical balance (Mettler Toledo AX205DR) to ensure precise measurements. Subsequently, 5 mM solutions were prepared using DMSO. Solutions were then diluted in water to reach a concentration of 1 mM and then, aliquots were taken and diluted in culture medium to obtain solutions ranging from 0 to 50 μM. […] The cells were treated with these solutions in dark conditions or following the photoactivation protocol (see below). 48 h later the treatments were removed, and cells were washed with phosphate-buffered saline (PBS).
(§2) Initially, the effect of the complexes on the cell viability was determined by the 3-(4,5-dimethylthiazol-2-yl)-2,5-diphenyltetrazolium bromide (MTT) assay.[147] The cells were incubated for 2 h with 100 μL of culture medium together with 10 μL of MTT (Sigma-Aldrich) at 0.5 mg/mL. After discarding the medium, DMSO was added to each well to dissolve the purple formazan crystals. The absorbance of each well was determined on a Multiscan Plate Reader (Synergy 4, Biotek, Winooski) at a wavelength of 570 nm. Cell viability was also assessed using the CyQUANT Direct Cell Proliferation Assay (Thermo Fisher Scientific), following the manufacturer’s instructions. Briefly, after the treatments, the cells were washed with PBS, and an equal volume of culture medium and CyQUANT mix was added to each well. The plates were then incubated for 1 h at 37 °C. Subsequently, the fluorescence intensity was bottom read using a Multiscan Plate Reader (Synergy 4, Biotek, Winooski) with excitation and emission filters of 485 and 528 nm, respectively. In both assays, at least three replicates were measured for each treatment. The concentration that reduces the cell viability by 50% (IC50) was established using the Gen5 software (BioTek). Three independent experiments were carried out for each compound. […] The phototoxicity index (PI = IC50,dark/IC50,light) was determined.
(§3) To assess the photodynamic activity of the complexes, cells were incubated with the complexes for 4 h to enable their intracellular accumulation. The cells were then irradiated with light with a wavelength of 460 nm (blue), 530 nm (green), or 655 nm (red) for 1 h using a LED system (LuxLight) with an effective power of 6.7 mW cm^–2, which provides a total light dose of 24.1 J cm^–2. The LED system was positioned at 25 mm from the cell culture plates.

[3] = test system: HeLa; test: CyQUANT cell viability assay, dark or blue light; type: cell-based, human; conditions: for IC50: 48 h; for IC50 / PI (IC50,dark/IC50,light): CyQUANT; for PI (IC50,dark/IC50,light): blue light 460 nm
Procedure: as §1, §2, §3

[4] = test system: A549; test: CyQUANT cell viability assay, dark or blue light; type: cell-based, human; conditions: for PI/Dose / IC50 / PI (IC50,dark/IC50,light): A549; for PI/Dose: 460 nm, dose 24.1 J cm‐2, PI from CyQUANT; for IC50: 48 h; for IC50 / PI (IC50,dark/IC50,light) / photoselectivity: IC50,light in A549 lower than IC50,dark in MRC-5 / phototoxicity indexes: CyQUANT; for PI (IC50,dark/IC50,light): blue light 460 nm; for photoselectivity: IC50,light in A549 lower than IC50,dark in MRC-5: A549 blue light vs nonirradiated MRC-5 lung fibroblasts; for phototoxicity indexes: three cancer cell lines (A549, HeLa, PC-3), blue light
Procedure: as §1, §2, §3

[5] = pKa determination (absorbance vs pH); type: physicochemical; conditions: DMSO/H2O (2/98, v/v), Bu4NBF4 5 mM; piperidine ring
Procedure: Solutions of complexes 5 and 6 (2.00 × 10^–5 M) and Imepip ligand (2.00 × 10^–3 M) in H2O/DMSO (98/2, v/v) mixture with n-Bu4NBF4 (5 mM) were prepared. The presence of the salt ensured the conductivity of the media. Evolution of the peaks was studied at different pH by recording the absorbance spectrum. Aliquots of 10 μL of HCl (0.002–0.020 M) or NaOH (0.002–0.020 M) were added to a solution of 2.4 mL of complex to vary the pH. The absorbance versus pH plot enables us to determine one constant according to the equation from the Wilson and Lester method (eq 2):[146] [drawing 23] 2 where Aa is the absorbance for the acid species, Ab is the absorbance for the basic species, and Am is the absorbance of the mixture. The intersection obtained by representing log(Am – Aa)/(Ab – Am) versus pH provides the pKa.

[6] = blue light 460 nm 1 h (24.1 J cm^–2), read-out: IC50,light

## Cc1c(C)c(C)[c-](C)c1C.[Cl][Ir]1[c]2cccc3c4nc5ccccc5nc4c4ccc[n+]1c4c23 [complex 1, [(η^5-C5Me5)IrCl(pbpz)]]
[1]; DMSO‐d6, dark, 0 h
  Percentage of species (chlorido complex remaining / aqua adduct formed), 1H NMR: 100%
[1]; DMSO‐d6, dark, 0.5 h
  Percentage of species (chlorido complex remaining / aqua adduct formed), 1H NMR: 78%
[1]; DMSO‐d6, dark, 1 h
  Percentage of species (chlorido complex remaining / aqua adduct formed), 1H NMR: 76%
[1]; DMSO‐d6, dark, 1.5 h
  Percentage of species (chlorido complex remaining / aqua adduct formed), 1H NMR: 75%
[1]; DMSO‐d6, dark, 2.5 h
  Percentage of species (chlorido complex remaining / aqua adduct formed), 1H NMR: 72%
[1]; DMSO‐d6, dark, 4.5 h
  Percentage of species (chlorido complex remaining / aqua adduct formed), 1H NMR: 71%
[1]; DMSO‐d6, dark, 6 h
  Percentage of species (chlorido complex remaining / aqua adduct formed), 1H NMR: 70%
[1]; DMSO‐d6, dark, 8 h
  Percentage of species (chlorido complex remaining / aqua adduct formed), 1H NMR: 69%
[1]; DMSO‐d6, dark, 10 h
  Percentage of species (chlorido complex remaining / aqua adduct formed), 1H NMR: 68%
[1]; DMSO‐d6, dark, 32 h
  Percentage of species (chlorido complex remaining / aqua adduct formed), 1H NMR: 57%
[1]; DMSO‐d6, dark, 50 h
  Percentage of species (chlorido complex remaining / aqua adduct formed), 1H NMR: 49%
[1]; DMSO‐d6, dark, 70 h
  Percentage of species (chlorido complex remaining / aqua adduct formed), 1H NMR: 40%
[1]; DMSO‐d6, dark, 97 h
  Percentage of species (chlorido complex remaining / aqua adduct formed), 1H NMR: 35%
[1]; DMSO‐d6/D2O (9/1), dark, 0 h
  Percentage of species (chlorido complex remaining / aqua adduct formed), 1H NMR: 100%
[1]; DMSO‐d6/D2O (9/1), dark, 0.5 h
  Percentage of species (chlorido complex remaining / aqua adduct formed), 1H NMR: 4%
[1]; DMSO‐d6/D2O (9/1), dark, 1 h
  Percentage of species (chlorido complex remaining / aqua adduct formed), 1H NMR: 0.5%
[1]; DMSO‐d6/D2O (9/1), dark, 1.5 h
  Percentage of species (chlorido complex remaining / aqua adduct formed), 1H NMR: 0%
[1]; DMSO‐d6/D2O (9/1), dark, 2.5 h
  Percentage of species (chlorido complex remaining / aqua adduct formed), 1H NMR: 0%
[1]; DMSO‐d6/D2O (9/1), dark, 4.5 h
  Percentage of species (chlorido complex remaining / aqua adduct formed), 1H NMR: 0%
[1]; DMSO‐d6/D2O (9/1), dark, 6 h
  Percentage of species (chlorido complex remaining / aqua adduct formed), 1H NMR: 0%
[1]; DMSO‐d6/D2O (9/1), dark, 8 h
  Percentage of species (chlorido complex remaining / aqua adduct formed), 1H NMR: 0%
[1]; DMSO‐d6/D2O (9/1), dark, 10 h
  Percentage of species (chlorido complex remaining / aqua adduct formed), 1H NMR: 0%
[1]; DMSO‐d6/D2O (9/1), dark, 32 h
  Percentage of species (chlorido complex remaining / aqua adduct formed), 1H NMR: 0%
[1]; DMSO‐d6/D2O (9/1), dark, 50 h
  Percentage of species (chlorido complex remaining / aqua adduct formed), 1H NMR: 0%
[1]; DMSO‐d6/D2O (9/1), dark, 70 h
  Percentage of species (chlorido complex remaining / aqua adduct formed), 1H NMR: 0%
[1]; DMSO‐d6/D2O (9/1), dark, 97 h
  Percentage of species (chlorido complex remaining / aqua adduct formed), 1H NMR: 0%

## Cc1c(C)c(C)[c-](C)c1C.F[B-](F)(F)F.c1ccc2cc3nc4c5ccc[n+]6c5c5[c](cccc5c4nc3cc2c1)[Ir]6[n+]1cc[nH]c1 [complex 4, [(η^5-C5Me5)Ir(Im)(pbpn)]BF4]
[2]; [6]
  IC50: 1.1 ± 0.6 nM
[2]
  PI (IC50,dark/IC50,light): 2022
[2]; dark, read-out: IC50,dark
  IC50: 2280 ± 700 nM
[2]; listed as 4
  PI/Dose: 84
[2]; listed as Complex 4
  PI/Dose: 83.9
[3]; [6]
  IC50: 4.2 ± 0.9 nM
[3]
  PI (IC50,dark/IC50,light): 370
[3]; dark, read-out: IC50,dark
  IC50: 1550 ± 300 nM
[4]; listed as 4
  PI/Dose: 84
[4]; listed as Complex 4
  PI/Dose: 84.4
[4]; [6]
  IC50: 1 ± 0.4 nM
[4]
  PI (IC50,dark/IC50,light): 2034
  photoselectivity: IC50,light in A549 lower than IC50,dark in MRC-5: 2480 times
  phototoxicity indexes: approximately 1000
[4]; dark, read-out: IC50,dark
  IC50: 2100 ± 600 nM

## Cc1c(C)c(C)[c-](C)c1C.F[B-](F)(F)F.c1ccc2nc3c4ccc[n+]5c4c4[c](cccc4c3nc2c1)[Ir]5[n+]1ccn(CCN2CCCCC2)c1 [complex 5, [(η^5-C5Me5)Ir(Imepip)(pbpz)]BF4]
[5]
  pKa: 7.2 and 7.19

## Cc1c(C)c(C)[c-](C)c1C.F[B-](F)(F)F.c1ccc2cc3nc4c5ccc[n+]6c5c5[c](cccc5c4nc3cc2c1)[Ir]6[n+]1ccn(CCN2CCCCC2)c1 [complex 6, [(η^5-C5Me5) Ir(Imepip)(pbpn)]BF4]
[2]; [6]
  IC50: 1.2 ± 1 nM
[2]
  PI (IC50,dark/IC50,light): 961
[2]; dark, read-out: IC50,dark
  IC50: 1160 ± 160 nM
[3]; 460 nm, dose 24.1 J cm‐2, PI from CyQUANT
  PI/Dose: 42.7
[3]; [6]
  IC50: 0.7 ± 0.2 nM
[3]
  PI (IC50,dark/IC50,light): 1031
[3]; dark, read-out: IC50,dark
  IC50: 700 ± 270 nM
[4]; [6]
  IC50: 0.4 ± 0.2 nM
[4]
  PI (IC50,dark/IC50,light): 911
  photoselectivity: IC50,light in A549 lower than IC50,dark in MRC-5: 1750 times
  phototoxicity indexes: approximately 1000
[4]; dark, read-out: IC50,dark
  IC50: 330 ± 200 nM
[5]
  pKa: 7.8 and 7.85
[1]; DMSO-d6/D2O (9/1), dark or blue, green or red light irradiation
  release of the N-donor ligand (1H NMR): not observed

## Cc1c(C)c(C)[c-](C)c1C.F[B-](F)(F)F.c1ccc(Cn2cc[n+]([Ir]3[c]4cccc5c6nc7cc8ccccc8cc7nc6c6ccc[n+]3c6c45)c2)cc1 [complex 8, [(η^5-C5Me5)Ir(bzIm)(pbpn)]BF4]
[2]; [6]
  IC50: 0.5 ± 0.3 nM
[2]
  PI (IC50,dark/IC50,light): 1179
  PI/Dose: 48.9
[2]; dark, read-out: IC50,dark
  IC50: 640 ± 100 nM
[3]; [6]
  IC50: 0.8 ± 0.2 nM
[3]
  PI (IC50,dark/IC50,light): 622
[3]; dark, read-out: IC50,dark
  IC50: 510 ± 100 nM
[4]
  PI/Dose: 52.3
  PI (IC50,dark/IC50,light): 1260
  photoselectivity: IC50,light in A549 lower than IC50,dark in MRC-5: 1700 times
  phototoxicity indexes: approximately 1000
[4]; [6]
  IC50: 0.4 ± 0.3 nM
[4]; dark, read-out: IC50,dark
  IC50: 500 ± 200 nM
